Measured values as given in article PMC11134608, “UBR5 forms ligand-dependent complexes on chromatin to regulate nuclear hormone receptor stability” (Molecular cell, 2023).

What was measured:
ER and UBR5 = experiment: Co-immunoprecipitation of ER-GFP and UBR5 in K562; type: cell-based, human; conditions: K562 ER-GFP, with MG132, 16 h
Excerpt: Blotting was done as described above.
Fulvestrant GDC-0927 Elacestrant Giredestrant Camizestrant Amcenestrant […]
log2 Ratio log2 Ratio log2 Ratio log2 Ratio log2 Ratio log2 Ratio […]
Amcenestrant Camizestrant GiredestrantBrilanestrant Fulvestrant ElacestrantAmcenestrant Camizestrant Giredestrant Brilanestrant […]
50 FulvestrantBrilanestrant
Figure S8. Non-endogenousligands recruitdifferent E3 ligases to induce ER degradation,Related to Figure 6 […]
VHL are highlighted in red. (C) Degradation (GFP/mCherry) of ER-GFP in K562 reporter cell lines treated with shRNAs targeting UBR5 and the specified SERDs or ER PROTACs. (D) Degradation (GFP/mCherry) of ER-GFP in K562 reporter cell lines treated with sgRNAs targeting RNF111 and the specified SERDs or ER PROTACs. (E) Western blots of T47D cells […]
treated with or without Brilanestrant. (G) Bioluminescence Resonance Energy Transfer (BRET) assay of ER, treated +/- fulvestrant or brilanestrant. (n=6 two sided t-test) (H) Western blots of ER co-immunoprecipitations from K562 ER-GFP reporter cells treated with brilanestrant and MG132 for 16 hours, and blotted with antibodies specific for GFP, and UBR5 as indicated. NS, not […]

ER [1] = experiment: ER degradation after RNF111 or UBR5 knockdown (reporter K562; T47D western); type: cell-based, human; conditions: K562 ER-GFP, shUBR5 / sgRNF111, Figure S8C, D
Protocol: Cells were analyzed for GFP vs mCherry expression.
Protein concentration was quantified via Pierce BCA Protein Assay Kit (ThermoFisher, 23225), and equal amounts of lysates were run on either SDS-PAGE 3–8% Tris-Acetate or 4–12% Bis-Tris Protein Gels (NuPAGE, ThermoFisher), then transferred to a PVDF membrane (Biorad, Wet Transfer System). Membranes were blocked for 30 minutes to 1 hour at room temperature in Odyssey Blocking Buffer/PBS (LI-COR Biosciences), and incubated with primary antibodies at 4 °C overnight. Stained membranes were washed three times in Tris-buffered saline with Tween 20 (TBS-T) and incubated for 1 hour at room temperature with secondary IRDye-conjugated antibodies (LI-COR Biosciences). Membranes were washed three times in TBS-T before imaging (Odyssey Imaging System, LI-COR Biosciences).

[2] = tested on: ER reporter (E3 ligase dependence); experiment: Targeted CRISPR screens, ER reporter K562 cells: E3 ligase used; type: cell-based, human; conditions: for E3 ligase used for ER degradation: K562 ER reporter, CRISPR screen; for E3 Ligase (Table S2): Supplemental Table S2
Protocol: To characterize the UPS pathway components involved in SERD-induced ER degradation, we performed CRISPR screens with our ER reporter in the presence multiple SERDs: fulvestrant, GDC-0927, elacestrant, giredestrant, camizestrant, amcenestrant, AZD-9496, brilanestrant, and LSZ-102. […] Taken together, these findings indicate that different classes of SERDs engage distinct ubiquitin ligases and degradation pathways to target ER.
The UPS and tiling CRISPR functional genomics screen was performed following previously described methods.[22] Briefly, the UPS CRISPR library targets 713 E1, E2, E3 ubiquitin ligases, and deubiquitinases and includes controls genes with a total of 2852 guide RNAs, cloned into the pXPR003 backbone. The UBR5 Tiling screen was created by CRISPR-SURF.[29] Viruses were produced in a T-175 format and ten percent by volume of the library virus was added to reporter cell lines in triplicates for transduction. Transduced cells were allowed to recover and expand for nine days, then treated with indicated ligand. Top and bottom 5% of cells by GFP signal were sorted for a total of at least 100,000 cells per replicate. Samples were processed as previously described.[22]
Reporter cell lines were treated with ATRA or 9-cis RA, and then sorted into four populations by eGFP/mCherry fluorescence ratios (Gates A-D), corresponding to the bottom and top 5–10% respectively (Figure S1D).[22],[23] Sorted cells were pelleted, lysed, and processed according to previous studies.[22] Briefly sgRNAs were amplified in two PCRs via Titanium Taq (Takara Bio 639210), Titanium Taq Buffer and 800uM dNTP mix and eight staggered forward primers. The first PCR also contained 200 nM SBS3-Stagger-pXPR003 forward primer and 200 nM SBS12-pXPR003 reverse primer (cycles: 5 minutes at 94°C, 15 × (30 sec at 94°C, 15 sec at 58°C, 30 sec at 72°C), 2 minutes at 72°C). Illumina adapters and barcodes were added in the second PCR (200 nM P5-SBS3 forward primer, 200 nM P7-barcode-SBS12 reverse primer). Samples were pooled and purified by agarose gel-electrophoresis (Qiagen) and NaOAc/isopropanol precipitation. Amplified guides were quantified by next-generation sequencing (Genomics Platform, Broad Institute), and analyzed for enrichment in Gate A over Gate D, representing degradation rescue.

ER reporter = ER reporter degradation; type: cell-based, human; conditions: 1 μM (legend, SERDs)
Protocol: Reporter cell lines were seeded in triplicate at a density of 1 million cells/ml in 100 μl per well in a 96 well plate and measured once. Ligand was added by Digital Dispenser (Tecan), and incubated at 37°C for the appropriate time before reading by flow cytometry. Cells were analyzed for GFP vs mCherry expression. GFP expression was normalized to mCherry signal and ligand treatments were compared to DMSO controls.

ER and RNF111 [3] = experiment: BRET assay of RNF111 and ER; type: cell-based, human
Excerpt: Bioluminescence resonance energy transfer (BRET) experiments were done using the NanoBRET PPI kit (Promega, N1821) according to manufacturer’s instructions.

ER and RNF111 [4] = experiment: Co-immunoprecipitation of FLAG-RNF111 and ER-GFP in 293T; conditions: ± MG132
Protocol: (B) ER reporter degradation following 1 μM of specified SERD treatment. […] UBR5 is highlighted in blue, RNF111, CRBN, VHL are highlighted in red. (D) Western blots of T47D cells transduced with sgRNAs against RNF111 treated with or without fulvestrant. […] (NS, not significant, *p < 0.05, **p < 0.005, ***p < 0.0005, ****p < 0.00005, error bars represent SEM.)
Reporter cells (up to 100 million) were treated with ligand (ATRA, dexamethasone) and allowed to incubate for different time points. […] Lysates were incubated with GFP-Trap Magnetic Agarose beads (ChromoTek, GTMA-20) overnight at 4°C on a rotator. Beads were magnetically removed and washed three times with Pierce IP Lysis Buffer with ligand added before boiling in 1x NuPAGE LDS Sample Buffer (ThermoFischer, NP0007). […] Experiments were repeated and representative images are shown.

ER [5] = conditions: cited from earlier work
Excerpt: SERDs are a class of molecules targeting the ER for the treatment of breast cancer. […] Given that UBR5 is similarly recruited to the NR hydrophobic cleft, we hypothesized that fulvestrant and other SERDs may employ a different mechanism for ER degradation. […] One of the best understood SERDs, fulvestrant, drastically remodels the hydrophobic cleft[16],[17] in a manner incompatible with UBR5 or NCOA binding. […] Strikingly, this correlates with clinical utility, hallmarked by the wide use of fulvestrant and recent approval of elacestrant,[53] both of which employ RNF111, in contrast to UBR5 SERDs (Table S2), none of which have been approved for clinical use. The heterogeneity of ER transcriptional pro ...

| Structure (SMILES) | ER and UBR5 interaction by co-immunoprecipitation (ER and UBR5) | regulated class of ER degradation (RNF111 or UBR5) (ER [1]) | E3 ligase used for ER degradation [2] | E3 Ligase (Table S2) [2] | ER reporter degradation (ER reporter) | ER-RNF111 BRET, significance (mBU) (ER and RNF111 [3]; Figure S8G, n = 6 two sided t-test) | association of RNF111 with ER by BRET (ER and RNF111 [3]; n = 6) | association of RNF111 with ER by co-immunoprecipitation (ER and RNF111 [4]) | ER degradation (literature) (ER [5]; ref [17], [53]) | ER transcriptional profile following SERD treatment (ER [5]; ref [17],[55]) | effect on helix 12 and ER hydrophobic cleft (ER [5]; ref [54]) |
| --- | --- | --- | --- | --- | --- | --- | --- | --- | --- | --- | --- |
| CC/C(=C(/c1ccc(/C=C/C(=O)O)cc1)c1ccc2[nH]ncc2c1)c1ccc(F)cc1Cl [brilanestrant] | increased ER and UBR5 interactions | UBR5 Regulated | required UBR5 for degradation | UBR5 | induced ER reporter degradation |  |  |  |  |  |  |
| C[C@]12CC[C@@H]3c4ccc(O)cc4C[C@@H](CCCCCCCCC[S+]([O-])CCCC(F)(F)C(F)(F)F)[C@H]3[C@@H]1CC[C@@H]2O (stereo partly drawn) [fulvestrant] |  | RNF111 Regulated | employed a different E3 ligase, RNF111 | RNF111 | induced ER reporter degradation | * (*p < 0.05) | induces association of RNF111 with ER | induces association of RNF111 with ER | lead to ER degradation | most antagonistic of tested SERDs | destabilize helix 12 and block the ER hydrophobic cleft, preventing coactivation |
